Results as given in patent US20260335453A1, “ISOINDOLINONE-GLUTARIMIDE ANTIBODY CONJUGATES, AND USES THEREOF” (FIREFLY BIO, INC., priority 2023, published 2026).

Legend:
CAL51 cells [1] = assay: Cell proliferation (Cell Titer Glow), CAL51; format: cell-based; conditions: Homo sapiens, CAL-51; IG compounds, cell killing, 72 h
Protocol: Exemplary isoindolinone-glutarimide (IG) compounds of Table 1a, 1b and 1c were prepared and characterized according to the Examples herein. Certain exemplary IG compounds of(Table 1a were tested for their effects in inhibiting cellular proliferation, including CAL1 WSU-DLCL2, NCI-N87 and SKBR3. CAL51 is a human breast adenocarcinoma cell line with triple-negative status for expression of estrogen, progesterone and HER2 receptors. WSU-DLCL2 is a human B-Cell non-Hodgkin lymphoma cell line that expresses high levels of CD22. NCI-N87 is a human epithelial cell line established from a gastric carcinoma; SKBR3 is a human epithelial cell line established from a breast adenocarcinoma; both NCI-N87 and SKBR3 cell lines express high levels of HER2 receptor. […]
One day prior to treatment with compounds or IGAC, cells were plated in white 96-well plates (SKBR: 3000 cells/well; CAL-51: 4000 cells/well). Compounds or ADCs were added in a serial-dilution manner reaching the indicated concentrations. Plates were incubated at 37 degrees for 96h (ADCs) or 72h (compounds) whereafter a 1:10 dilution of Cell Titer Glow was used to measure relative cell numbers after 10 min of incubation at room temperature.

CAL51 cells [2] = assay: Degradation assay evaluated by immunofluorescence staining, CAL51; format: cell-based, human; conditions: for Dmax / DC50: Homo sapiens, CAL-51, CAL51, 6 h; for Dmax (%) CAL51: CAL51, 6 h
Protocol: One day prior to treatment with compounds, black 96 well plates were coated with fibronectin (0.2 μg/ml in PBS) for 45 min at room temperature and subsequently washed with PBS. CAL-51 or SKBR3 cells were seeded at 30K cells/well (1001) and incubated overnight at 37° C. whereafter compounds were added reaching indicated concentrations. 6 h after treatment the medium was removed, cells were washed with PBS and fixed with 10% formalin for 20 mins at room temperature. Following two PBS washes (150 μl), cells were permeabilized in 0.1% Triton X-100 in PBS for 8 mins at room temperature and subsequently washed again twice with PBS. Cells were blocked thereafter with 1% BSA in PBS for 45 mins. Primary antibody was diluted in blocking buffer and incubated with the cells overnight at 4° C. After three washes with PBS, cells were incubated with secondary antibody for 1 h at RT, washed and subsequently images were taken on an Operetta High-Content Imager.
For the determination of the DC50, a custom algorithm implemented in the PerkinElmer image analysis software Harmony-Acapella® was used.

Compound	IC50 (CAL51 cells [1]) [µM]	Dmax (CAL51 cells [2]) [%]	Dmax (%) CAL51 (CAL51 cells [2])	DC50 (CAL51 cells [2]) [nM]
Nc1ccc(OS(=O)(=O)c2ccccc2OC(F)(F)F)c2c1C(=O)N(C1CCC(=O)NC1=O)C2=O (stereo not drawn) [IG-30, 7-amino-2-(2,6-dioxopiperidin-3-yl)-1,3-dioxoisoindolin-4-yl 2-(trifluoromethoxy)benzenesulfonate]	> 10			
CNCCOCCc1ccc(NC(=O)OCc2ccc3c(c2)CN(C2CCC(=O)NC2=O)C3=O)cc1Cl (stereo not drawn) [IG-4]	> 10	17.3 ± 0.107		
O=C1CCC(N2C(=O)c3cc(O)c(NS(=O)(=O)c4ccccc4OC(F)(F)F)cc3C2=O)C(=O)N1 (stereo not drawn) [IG-46, N-(2-(2,6-dioxopiperidin-3-yl)-6-hydroxy-1,3-dioxoisoindolin-5-yl)-2-(trifluoromethoxy)benzenesulfonamide]	> 10			
O=C1CCC(N2C(=O)c3cc(NS(=O)(=O)c4ccccc4OC(F)(F)F)cc(O)c3C2=O)C(=O)N1 (stereo not drawn) [IG-34, N-(2-(2,6-dioxopiperidin-3-yl)-7-hydroxy-1,3-dioxoisoindolin-5-yl)-2-(trifluoromethoxy)benzenesulfonamide]	> 10			
Cc1ccc(NC(=O)NCc2cc(O)c3c(c2)CN(C2CCC(=O)NC2=O)C3=O)cc1Cl (stereo not drawn) [IG-24, 1-(3-chloro-4-methylphenyl)-3-((2-(2,6-dioxopiperidin-3-yl)-7-hydroxy-1-oxoisoindolin-5-yl)methyl)urea]	0.412			
O=C1CCC(N2Cc3c(ccc(CNC(=O)Nc4ccc(Br)c(Br)c4)c3O)C2=O)C(=O)N1 (stereo not drawn) [IG-47, 1-(3,4-dibromophenyl)-3-((2-(2,6-dioxopiperidin-3-yl)-4-hydroxy-1-oxoisoindolin-5-yl)methyl)urea]	1.08			
CNCCOCCc1ccc(NC(=O)NCc2ccc3c(c2)C(=O)N(C2CCC(=O)NC2=O)C3)cc1Cl (stereo not drawn) [IG-20, 1-(3-chloro-4-(2-(2-(methylamino)ethoxy)ethyl)phenyl)-3-((2-(2,6-dioxopiperidin-3-yl)-3-oxoisoindolin-5-yl)methyl)urea]	> 10		Not active	
O=C1CCC(N2C(=O)c3ccc(NS(=O)(=O)c4ccccc4OC(F)(F)F)cc3C2=O)C(=O)N1 (stereo not drawn) [IG-9, N-(2-(2,6-dioxopiperidin-3-yl)-1,3-dioxoisoindolin-5-yl)-2-(trifluoromethoxy)benzenesulfonamide]	6.49	83.8 ± 5.5		157 ± 46.5
Cc1ccc(NC(=O)OCc2ccc3c(c2)CN(C2CCC(=O)NC2=O)C3=O)cc1O (stereo not drawn) [IG-13, (2-(2,6-dioxopiperidin-3-yl)-1-oxoisoindolin-5-yl)methyl (3-hydroxy-4-methylphenyl)carbamate]	3.04	38.8 ± 1.98		
CC(C)(C)c1cccc(NC(=O)NCc2ccc3c(c2O)CN(C2CCC(=O)NC2=O)C3=O)c1 (stereo not drawn) [IG-25, 1-(3-(tert-butyl)phenyl)-3-((2-(2,6-dioxopiperidin-3-yl)-4-hydroxy-1-oxoisoindolin-5-y1)methyl)urea]	0.0432	89.6		28.9
Nc1ccc2c(c1OS(=O)(=O)c1ccccc1OC(F)(F)F)C(=O)N(C1CCC(=O)NC1=O)C2=O (stereo not drawn) [IG-29, 5-amino-2-(2,6-dioxopiperidin-3-yl)-1,3-dioxoisoindolin-4-yl 2-(trifluoromethoxy)benzenesulfonate]	> 10			
Cc1ccc(NC(=O)CCc2ccc3c(c2)CN(C2CCC(=O)NC2=O)C3=O)cc1O (stereo not drawn) [IG-10, 3-(2-(2,6-dioxopiperidin-3-yl)-1-oxoisoindolin-5-yl)-N-(3-hydroxy-4-methylphenyl)propanamide]	> 10	25.1 ± 3.27		
CC(C)(C)c1ccc(NC(=O)NCc2ccc3c(c2O)CN(C2CCC(=O)NC2=O)C3=O)cc1Cl (stereo not drawn) [IG-48, 1-(4-(tert-butyl)-3-chlorophenyl)-3-((2-(2,6-dioxopiperidin-3-yl)-4-hydroxy-1-oxoisoindolin-5-yl)methyl)urea]	0.05			
O=C1CCC(N2Cc3cc(CNC(=O)Nc4ccc(CCOCCN5CCOCC5)c(O)c4)ccc3C2=O)C(=O)N1 (stereo not drawn) [IG-32, 1-((2-(2,6-dioxopiperidin-3-yl)-1-oxoisoindolin-5-yl)methyl)-3-(3-hydroxy-4-(2-(2-morpholinoethoxy)ethyl)phenyl)urea]	> 10			
Cc1ccc(NC(=O)NCc2ccc3nnn(C4CCC(=O)NC4=O)c(=O)c3c2)cc1O (stereo not drawn) [IG-35, 1-((3-(2,6-dioxopiperidin-3-yl)-4-oxo-3,4-dihydrobenzo[d][1,2,3]triazin-6-yl)methyl)-3-(3-hydroxy-4-methylphenyl)urea]	> 10			
O=C1CCC(N2Cc3c(ccc(CNC(=O)Nc4cccc(S(F)(F)(F)(F)F)c4)c3O)C2=O)C(=O)N1 (stereo not drawn) [IG-43, 1-((2-(2,6-dioxopiperidin-3-yl)-4-hydroxy-1-oxoisoindolin-5-yl)methyl)-3-(3-(pentafluoro-l6-sulfaneyl)phenyl)urea]	0.472			
CNCCOCCc1ccc(NC(=O)NCc2ccc3c(c2O)CN(C2CCC(=O)NC2=O)C3=O)cc1Cl (stereo not drawn) [IG-53, 1-(3-chloro-4-(2-(2-(methylamino)ethoxy)ethyl)phenyl)-3-((2-(2,6-dioxopiperidin-3-yl)-4-hydroxy-1-oxoisoindolin-5-yl)methyl)urea]	> 30			
O=C1CCC(N2Cc3c(Nc4ccnc(Cc5ccc6c(c5)CCC6)n4)cccc3C2=O)C(=O)N1 (stereo not drawn) [IG-19, 3-(4-((2-((2,3-dihydro-1H-inden-5-yl)methyl)pyrimidin-4-yl)amino)-1-oxoisoindolin-2-yl)piperidine-2,6-dione]	> 10		Not active	
CNCCOCCc1ccc(NC(=O)NCc2ccc3c(c2)CN(C2CCC(=O)NC2=O)C3=O)cc1SC (stereo not drawn) [IG-6, 1-((2-(2,6-dioxopiperidin-3-yl)-1-oxoisoindolin-5-yl)methyl)-3-(4-(2-(2-(methylamino)ethoxy)ethyl)-3-(methylthio)phenyl)urea]	7.51	73.3 ± 9.98		834 ± 125
Cc1ccc(NC(=O)NCc2ccc3c(c2)C(=O)N(C2CCC(=O)NC2=O)C3)cc1Cl (stereo not drawn) [IG-16, 1-(3-chloro-4-methylphenyl)-3-((2-(2,6-dioxopiperidin-3-yl)-3-oxoisoindolin-5-yl)methyl)urea]	0.444	91.7 ± 5.22		174 ± 106
CNc1cc2c(cc1CNC(=O)Nc1ccc(C)c(Cl)c1)CN(C1CCC(=O)NC1=O)C2=O (stereo not drawn) [IG-45, 1-(3-chloro-4-methylphenyl)-3-((2-(2,6-dioxopiperidin-3-yl)-6-(methylamino)-1-oxoisoindolin-5-yl)methyl)urea]	> 10			
CC(C)(C)c1ccc(NC(=O)NCc2ccc3c(c2O)CN(C2CCC(=O)NC2=O)C3=O)cc1 (stereo not drawn) [IG-26, 1-(4-(tert-butyl)phenyl)-3-((2-(2,6-dioxopiperidin-3-yl)-4-hydroxy-1-oxoisoindolin-5-y1)methyl)urea]	> 10	22.1		
Cc1ccc(NC(=O)NCc2ccc3c(c2O)CN(C2CCC(=O)NC2=O)C3=O)cc1O (stereo not drawn) [IG-27, 1-((2-(2,6-dioxopiperidin-3-yl)-4-hydroxy-1-oxoisoindolin-5-yl)methyl)-3-(3-hydroxy-4-methylphenyl)urea]	> 10			
CNc1c(CNC(=O)Nc2ccc(C)c(Cl)c2)ccc2c1CN(C1CCC(=O)NC1=O)C2=O (stereo not drawn) [IG-31, 1-(3-chloro-4-methylphenyl)-3-((2-(2,6-dioxopiperidin-3-yl)-4-(methylamino)-1-oxoisoindolin-5-yl)methyl)urea]	> 10	18.6		
CNCCOCCc1ccc(NC(=O)NCc2ccc3c(c2)CN(C2CCC(=O)NC2=O)C3=O)cc1C(C)C (stereo not drawn) [IG-5]	6.86	64.6 ± 2.56		1410
O=C1CCC(N2Cc3c(Nc4ccnc(Nc5ccc6c(c5)CCC6)n4)ccc(O)c3C2=O)C(=O)N1 (stereo not drawn) [IG-44, 3-(4-((2-((2,3-dihydro-1H-inden-5-yl)amino)pyrimidin-4-yl)amino)-7-hydroxy-1-oxoisoindolin-2-yl)piperidine-2,6-dione]	> 10			
CNCCOCCc1ccc(NC(=O)NCc2ccc3c(c2)CN(C2CCC(=O)NC2=O)C3=O)cc1O (stereo not drawn) [IG-14, 1-((2-(2,6-dioxopiperidin-3-yl)-1-oxoisoindolin-5-yl)methyl)-3-(3-hydroxy-4-(2-(2-(methylamino)ethoxy)ethyl)phenyl)urea]	> 10	22.7 ± 3.34		
Cc1ccc(NC(=O)OCc2ccc3c(c2O)CN(C2CCC(=O)NC2=O)C3=O)cc1Cl (stereo not drawn) [IG-33, (2-(2,6-dioxopiperidin-3-yl)-4-hydroxy-1-oxoisoindolin-5-yl)methyl (3-chloro-4-methylphenyl)carbamate]	> 10			
O=C1CCC(N2Cc3cc(NS(=O)(=O)c4ccccc4OC(F)(F)F)ccc3C2=O)C(=O)N1 (stereo not drawn) [IG-11, N-(2-(2,6-dioxopiperidin-3-yl)-1-oxoisoindolin-5-yl)-2-(trifluoromethoxy) benzenesulfonamide]	> 10	42 ± 9.54		
